One series relates to MDA-MB-453. Briefly: Cell viability assay (PrestoBlue, 72 h), MDA-MB-453. It counts as cell-based. To be noted: Homo sapiens; for viability at 10 µM: MDA-MB-453, 72 h, mean of at least two determinations, within ± 15%, read-out: Survival rate at 10 uM MDA-MB-453; for IC50: MDA-MB-453. As for the experimental part: (§1) The cells were seeded in 384-well clear plates with a density of 8 × 10^2 cells/well for MCF-10A and BT-549 cell lines, 1 × 10^3 cells/well for MDA-MB-453, and 2 × 10^3 cells/well for MDA-MB-231 overnight. Then cells were treated with the indicated concentrations of test compounds for 72 h. At the end of incubation, 5 μL of PrestoBlue Cell Viability Reagent (Invitrogen, Carlsbad, CA, USA) was added to each well with 50 μL medium. The plates were incubated for an additional 1.5 h at 37 °C in a humidified 5% CO2 atmosphere; the relative fluorescence unit (RFU) in the reaction mixture will then be recorded (Ex560/Em590) by Victor^2-Vplate reader (PerkinElmer, Waltham, MA, USA). The cell lines were chosen based on the mutation status of PTEN and/or TP53: MCF-10A, the nonmalignant mammary epithelial cell line; BT-549 with mutation of PTEN and TP53; MDA-MB-453 with mutation of PTEN; MDA-MB-231 with mutation of TP53[47].

The subject of another series is BT-549. Briefly: Cell viability assay (PrestoBlue, 72 h), BT-549. The format is cell-based. To be noted: Homo sapiens; for viability at 10 µM: BT-549, 72 h, mean of at least two determinations, within ± 15%, read-out: Survival rate at 10 uM BT-549; for IC50: BT-549. As for the experimental part: as §1
A further series relates to MDA-MB-231. Put plainly: Cell viability assay (PrestoBlue, 72 h), MDA-MB-231. To be noted: for viability at 10 µM / IC50: Homo sapiens; for viability at 10 µM: MDA-MB-231, 72 h, mean of at least two determinations, within ± 15%, read-out: Survival rate at 10 uM MDA-MB-231; for IC50: MDA-MB-231; for Activity toward TNBC cell lines (in words): TNBC cell lines MDA-MB-231, BT-549, MDA-MB-453. The format is cell-based, human. As for the experimental part:
as §1

The subject of series [1] is MCF10A, a nonmalignant mammary epithelial cell line. Put plainly: Cell viability assay (PrestoBlue, 72 h), MCF10A. Conditions: for Survival rate at 10 uM MCF10A / MCF-10A Inhibition rate: human, 72 h, 10 µM. It counts as cell-based. As for the experimental part:
as §1

Another series has as its target mu-opioid receptor (MOR) (Homo sapiens, UniProt P35372). Briefly: FLIPR calcium assay in CHO-K1/MOR/Gα15 cells.
Where [2] appears, read: Figure 3C, unit inferred, read-out: IC50 values MDA-MB-453.
Where [3] appears, read: Figure 3C, unit inferred, read-out: IC50 values BT-549.
[4] abbreviates: Figure 3C, unit inferred, read-out: IC50 values MDA-MB-231.
Where [5] appears, read: Figure 4B, read-out: MDA-MB-453 IC50.
Where [6] appears, read: Figure 4B, read-out: BT-549 IC50.
Setting [7] is: Figure 4B, read-out: MDA-MB-231 IC50.

Where two headings read alike, the source gives them in different places. Where only a bound is given, the exact number is not on record here.

mu-opioid receptor (MOR), sequence (P35372 whole entry): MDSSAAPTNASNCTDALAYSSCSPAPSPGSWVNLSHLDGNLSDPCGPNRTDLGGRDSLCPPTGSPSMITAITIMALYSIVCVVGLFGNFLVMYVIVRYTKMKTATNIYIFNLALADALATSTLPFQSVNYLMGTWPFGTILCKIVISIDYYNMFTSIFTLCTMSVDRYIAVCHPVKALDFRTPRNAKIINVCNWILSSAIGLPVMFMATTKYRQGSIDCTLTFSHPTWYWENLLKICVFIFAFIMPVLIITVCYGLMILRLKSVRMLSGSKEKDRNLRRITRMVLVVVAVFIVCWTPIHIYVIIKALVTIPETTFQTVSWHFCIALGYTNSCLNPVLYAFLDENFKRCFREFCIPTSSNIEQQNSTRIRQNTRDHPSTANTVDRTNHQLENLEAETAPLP

The IC50 is the concentration needed to halve the response being measured. Take `O=C(c1ccc(Oc2ccc([N+](=O)[O-])cc2)cc1)c1ccc(Oc2ccc([N+](=O)[O-])cc2)cc1` [Compound 8]: the viability at 10 µM in the series with MDA-MB-453 amounted to 47%; with BT-549 it was 88%; with MDA-MB-231, 22%. In addition, the IC50 was above 20 µM in the series on MDA-MB-453 (setting [2]), above 20 µM in the series with BT-549 (setting [3]) and 10.7 µM with MDA-MB-231 (setting [4]). For the same compound, in the series on MDA-MB-231, the “Activity toward TNBC cell lines (in words)” value is given as “broader TNBC inhibitions”.

In the case of `O=C(N/N=C/c1ccc(Br)cc1)c1cc2ccccc2[nH]1` [Compound 11], the values for the viability at 10 µM in the series on MDA-MB-453, in the series on BT-549 and in the series on MDA-MB-231 were 29%, 26% and 56%, respectively. Moreover, the “Cytotoxicity to MCF10A (in words)” value in series [1] is listed as “low cytotoxicity”. Also, the “Survival rate at 10 uM MCF10A” value in series [1] amounted to 18%.

One may read the EC50 as the midpoint of the concentration-response curve. On to `CN(CCNC(=O)c1ccc(C(=O)NCCN(C)Cc2ccccc2)cc1)Cc1ccccc1` [Compound 24], for which, at mu-opioid receptor (MOR), the EC50 was found to be 5.71 µM.

`COC(=O)Nc1nc2ccc(C(=O)c3ccccc3)cc2[nH]1` [Compound 12]: the viability at 10 µM with MDA-MB-453 amounted to 22%; in the series on BT-549, 17%; in the series on MDA-MB-231, 35%. In series [1], the “Cytotoxicity to MCF10A (in words)” value was “low cytotoxicity”. For the same compound, the “Survival rate at 10 uM MCF10A” value in series [1] is 13%.

As for `CCN(C(=O)c1sc(NC(=O)CCl)c(C#N)c1C)C1CCCCC1` [Compound 5], the viability at 10 µM was -16% in the series on MDA-MB-453, 10% in the series with BT-549 and -12% with MDA-MB-231. The “Cytotoxicity to MCF10A (in words)” value in series [1] is “low cytotoxicity”. The “Survival rate at 10 uM MCF10A” value in series [1] came to 16%.

`COc1ccc(C(=O)Nc2ncc(-c3ccncc3)s2)cc1` [Compound 23]: the IC50 with MDA-MB-453 (setting [5]) was 7.93 µM; in the series on BT-549 (setting [6]), 2.6 µM; in the series on MDA-MB-231 (setting [7]) it was 3.98 µM. In addition, the “Cytotoxicity to MCF10A (in words)” value in series [1] is reported as “exhibited cytotoxicity”. In series [1], the “MCF-10A Inhibition rate” value amounted to 35%. Further, the “Activity toward TNBC cell lines (in words)” value in the series on MDA-MB-231 is on record as “moderate micro molar activities”.

Consider `Cc1cc(C)c(-c2csc(NC(=O)c3ccc(Br)cc3)n2)c(C)c1` [Compound 3], for which the viability at 10 µM with MDA-MB-453 was 21%; in the series with BT-549 it was 101%; in the series with MDA-MB-231, -14%. In addition, the IC50 in the series with MDA-MB-453 (setting [2]) is 5.19 µM; in the series with BT-549 (setting [3]), above 20 µM; with MDA-MB-231 (setting [4]) it was 1.49 µM. Also, the “Cytotoxicity to MCF10A (in words)” value in series [1] is on record as “low cytotoxicity”. In addition, in series [1], the “Survival rate at 10 uM MCF10A” value was 44%. In addition, the “Activity toward TNBC cell lines (in words)” value in the series with MDA-MB-231 is “broader TNBC inhibitions”.

Regarding `Cc1ccc(-c2csc(NC(=O)c3ccc(F)cc3)n2)c(C)c1` [Compound 15], the IC50 is 9.28 µM in the series on MDA-MB-453 (setting [5]), above 10 µM with BT-549 (setting [6]) and 1.89 µM in the series on MDA-MB-231 (setting [7]). Further, in series [1], the “MCF-10A Inhibition rate” value was -8%.

As for `Cc1ccc(-c2csc(NC(=O)c3ccc(F)cc3)n2)c(C)c1` [Compound 4], the viability at 10 µM in the series with MDA-MB-453 turned out to be 53%; in the series on BT-549, 106%; in the series with MDA-MB-231, 35%. Moreover, in series [1], the “Cytotoxicity to MCF10A (in words)” value is “low cytotoxicity”. For the same compound, the “Survival rate at 10 uM MCF10A” value in series [1] is 101%.

Consider `O=C(N/N=C/c1ccccc1Cl)c1[nH]c2ccc(Cl)cc2c1-c1ccccc1` [Compound 1], for which the values for the viability at 10 µM with MDA-MB-453, in the series on BT-549 and in the series with MDA-MB-231 were 17%, 12% and 36%, respectively. The “Cytotoxicity to MCF10A (in words)” value in series [1] is “low cytotoxicity”. In addition, the “Survival rate at 10 uM MCF10A” value in series [1] is -7%.

Take `Cc1ccc2c(Cl)c(C(=O)NCC(c3ccccc3Cl)N(C)C)sc2c1` (stereo not shown) [Compound 25]: the EC50 on mu-opioid receptor (MOR) came out at 6.12 µM.

Turning to `Nc1c(C(=O)c2ccccc2)sc2nc3c(cc12)CCCC3` [Compound 2], the viability at 10 µM with MDA-MB-453 amounted to 15%; with BT-549 it was 16%; with MDA-MB-231, 34%. Besides, the “Cytotoxicity to MCF10A (in words)” value in series [1] was “low cytotoxicity”. Also, the “Survival rate at 10 uM MCF10A” value in series [1] is -5%.

For the compound `Cc1cccc(C(=O)Nc2nc(-c3cc(C)ccc3C)cs2)c1` [Compound 9], the viability at 10 µM with MDA-MB-453 stood at 54%; in the series on BT-549, 79%; in the series on MDA-MB-231 it was 51%. Also, the “Cytotoxicity to MCF10A (in words)” value in series [1] was “low cytotoxicity”. The “Survival rate at 10 uM MCF10A” value in series [1] is 105%.

As to `O=C(Nc1ncc(-c2ccncc2)s1)c1ccc(F)cc1` [Compound 22], the IC50 with MDA-MB-453 (setting [5]), with BT-549 (setting [6]) and in the series with MDA-MB-231 (setting [7]) was above 10 µM throughout. The “MCF-10A Inhibition rate” value in series [1] is -5%. The “Activity toward TNBC cell lines (in words)” value with MDA-MB-231 is listed as “did not show activities”.

In the case of `COC(=O)c1ccc(C(=O)Nc2nc(-c3ccc(C)cc3C)cs2)cc1` [Compound 18], the IC50 is above 10 µM with MDA-MB-453 (setting [5]), above 10 µM with BT-549 (setting [6]) and 0.62 µM in the series on MDA-MB-231 (setting [7]). In series [1], the “MCF-10A Inhibition rate” value stood at 4%. In series [1] (versus MDA-MB-231), the “Selectivity over nonmalignant mammary epithelial cell (in words)” value was “good selectivity”.

In the case of `Cc1cc(N2CCN(C)CC2)nc(N2CCN(C(=O)c3ccc(C)c(C)c3)CC2)n1` [Compound 28], the EC50 at mu-opioid receptor (MOR) worked out at 8.05 µM.

In the case of `Cc1ccc(-c2csc(NC(=O)c3cc(C)on3)n2)c(C)c1` [Compound 20], the IC50 in the series on MDA-MB-453 (setting [5]), in the series on BT-549 (setting [6]) and with MDA-MB-231 (setting [7]) was above 10 µM each time. Besides, in series [1], the “MCF-10A Inhibition rate” value is listed as 14%.

With `COc1ccc(C(=O)Nc2nc(-c3ccc(C)cc3C)cs2)cc1` [Compound 16], the IC50 is 6.3 µM in the series on MDA-MB-453 (setting [5]), above 10 µM in the series with BT-549 (setting [6]) and 1.4 µM in the series with MDA-MB-231 (setting [7]). In series [1], the “MCF-10A Inhibition rate” value came out at 8%.

Consider `Cc1ccc(-c2csc(NC(=O)c3ccsc3)n2)c(C)c1` [Compound 19], for which the IC50 in the series on MDA-MB-453 (setting [5]) is above 10 µM; with BT-549 (setting [6]), above 10 µM; in the series on MDA-MB-231 (setting [7]) it was 2.68 µM. In addition, the “MCF-10A Inhibition rate” value in series [1] was 14%.

In the case of `Cc1ccc(C(=O)Nc2cnc3ccccc3c2)cc1C` [Compound 27], on mu-opioid receptor (MOR), the EC50 was determined as 4.32 µM.

With `Cn1ncc(Cl)c1C(=O)Nc1ccc2nc(NC(=O)C3CCCCC3)sc2c1` [Compound 6], the viability at 10 µM turned out to be 19% with MDA-MB-453, 22% in the series with BT-549 and 33% in the series with MDA-MB-231. Besides, the “Cytotoxicity to MCF10A (in words)” value in series [1] is given as “low cytotoxicity”. The “Survival rate at 10 uM MCF10A” value in series [1] came to 6%.

As for `Cc1cc(C)c(C)c(-c2csc(NC(=O)c3cc([N+](=O)[O-])cc([N+](=O)[O-])c3)n2)c1C` [Compound 10], the viability at 10 µM was determined as 25% in the series with MDA-MB-453, 52% with BT-549 and 21% with MDA-MB-231. The IC50 in the series with MDA-MB-453 (setting [2]) was above 20 µM; in the series on BT-549 (setting [3]), 7.68 µM; in the series with MDA-MB-231 (setting [4]) it was 8.4 µM. For the same compound, the “Activity toward TNBC cell lines (in words)” value in the series on MDA-MB-231 is on record as “broader TNBC inhibitions”.

With `O=C(Nc1ccc(S(=O)(=O)NC2CCCCC2)cc1)C1CCCCC1` [Compound 26], the EC50 at mu-opioid receptor (MOR) turned out to be 0.56 µM.

Regarding `CCN(CC)S(=O)(=O)c1ccc(C(=O)Nc2nc(-c3ccc(Cl)c(Cl)c3)cs2)cc1` [Compound 7], the values for the viability at 10 µM in the series on MDA-MB-453, with BT-549 and in the series on MDA-MB-231 were 29%, 54% and 6%, respectively. Besides, the IC50 with MDA-MB-453 (setting [2]) is above 20 µM; in the series with BT-549 (setting [3]) it was above 20 µM; with MDA-MB-231 (setting [4]) it was 2.52 µM. Also, in series [1], the “Cytotoxicity to MCF10A (in words)” value was “low cytotoxicity”. Moreover, the “Survival rate at 10 uM MCF10A” value in series [1] is on record as 117%. For the same compound, the “Activity toward TNBC cell lines (in words)” value in the series on MDA-MB-231 is recorded as “broader TNBC inhibitions”.
